Measurements taken from patent US20250161299A1, “ORAL PCLX-001 IN THE TREATMENT OF HUMAN CANCER” (PACYLEX PHARMACEUTICALS INC., priority 2022, published 2025).
“Also recorded” adds a separate entry of the source. Where two headings read alike, the source gives them in different places.

Assay: Phase I trial of oral PCLX-001: plasma pharmacokinetics, noncompartmental analysis (Phoenix WinNonlin 8.3)
Format: in vivo, human
Details: for Tmax / Cmax / AUC(0-t) / half-life / AUC(0-inf): human, plasma, po; for Tmax: read-out: Tmax; for AUC(0-t): read-out: AUClast or AUCtau; for half-life: read-out: Half-life (converted)
Text: The clinical trial is entitled “Phase I Trial of PCLX-001 in B-cell Non-Hodgkin Lymphoma and Advanced Solid Malignancies” and registered at clinicaltrials.gov as NCT04836195. It is a phase I dose-escalation study of oral PCLX-001, conducted in a multicenter, non-randomized, open-label, non-controlled design. The study is comprised of two parts: Part A (single-agent dose escalation) and Part B (single-agent expansion cohorts).
Patients are to receive daily oral PCLX-001 on 28-day cycles, beginning with a starting dose of 20 mg.
[…] After dosing, the blood samples (volumes 3 mL) were serially collected into heparinized tubes from a right forearm butterfly cannula. All blood fluid specimens were frozen and later assayed using a validated UHPLC-MS detection method.
Noncompartmental pharmacokinetic analysis was performed using Phoenix WinNonlin 8.3 using trapezoidal rule and linear up log down methodology. WinNonlin was allowed to pick optimal terminal phases.
Nonparametric superposition was performed using Phoenix WinNonlin Nonparametric Superposition to predict steady state data based upon Day 1 data for each patient. It utilized the 8- and 24-hour time points for estimation of terminal phase for the purposes of this exercise. We simulated 20 mg daily oral dosing and simulations were conducted out to steady state. Results are show in FIGS. 5, 6, and 7.
In the non-compartmental analysis, Phoenix WinNonlin 8.3 trapezoidal rule was used, with linear up log down method. This allowed WinNonlin to pick optimal terminal phase (WinNonlin will accept Rsq adjusted to >0.7). Additional analysis to assess adequate fie included visual inspection of data, and AUCextrap should be <15%.
Phoenix WinNonlin 8.3 trapezoidal rule. Used linear up log down method. Allowed WinNonlin to pick optimal terminal phase (WinNonlin will accept Rsq adjusted >0.7).
Other analysis to assess adequate fit. Visual inspection of data. AUCextrap should be <15%.

[1] = 70 mg, Table 8, Patient 115-024-001, Day 1, 70 mg QD oral, Pantoprazole No
[2] = 70 mg, Table 8, Patient 115-024-001, Day 15, 70 mg QD oral, Pantoprazole No
[3] = 100 mg, Table 9, Patient 115-002-009, Day 1, 100 mg QD oral, Pantoprazole No
[4] = 100 mg, Table 9, Patient 115-002-010, Day 1, 100 mg QD oral, Pantoprazole No
[5] = 100 mg, Table 9, Patient 115-002-011, Day 1, 100 mg QD oral, Pantoprazole No
[6] = 100 mg, Table 9, Patient 115-002-011, Day 15, 100 mg QD oral, Pantoprazole No
[7] = 100 mg, Table 9, Patient 115-002-012, Day 1, 100 mg QD oral, Pantoprazole No
[8] = 100 mg, Table 9, Patient 115-002-012, Day 15, 100 mg QD oral, Pantoprazole No
[9] = 140 mg, Table 10, Patient 115-002-006, Day 1, Dose 140 mg QD oral, Concomitant Pantoprazole No
[10] = 140 mg, Table 10, Patient 115-002-006, Day 15, Dose 140 mg QD oral, Concomitant Pantoprazole No
[11] = 140 mg, Table 10, Patient 115-024-005, Day 1, Dose 140 mg QD oral, Concomitant Pantoprazole Yes
[12] = 140 mg, Table 10, Patient 115-024-005, Day 15, Dose 140 mg QD oral, Concomitant Pantoprazole Yes
[13] = 140 mg, Table 10, Patient 115-024-013, Day 1, Dose 140 mg QD oral, Concomitant Pantoprazole Yes
[14] = 140 mg, Table 10, Patient 115-024-013, Day 15, Dose 140 mg QD oral, Concomitant Pantoprazole Yes

## Cc1c(NS(=O)(=O)c2c(Cl)cc(-c3ccnc(N4CCNCC4)c3)cc2Cl)c(CC(C)C)nn1C [PCLX-001, 2,6-dichloro-N-(3-isobutyl-1,5-dimethyl-1H-pyrazol-4-yl)-4-(2-(piperazin-1-yl)pyridin-4-yl)benzene sulfonamide]
70 mg, Table 8, Patient 115-002-008, Day 15, 70 mg QD oral, Pantoprazole Yes
  Tmax: 8 h
[1]
  Cmax: 1430 ng/mL
  AUC(0-t): 9400 ng·h/mL
  half-life: 9.44 h
  Tmax: 1 h
[2]
  Cmax: 629 ng/mL
  AUC(0-t): 7300 ng·h/mL
  Tmax: 4 h
[3]
  AUC(0-inf): 15400 ng·h/mL
  Cmax: 1740 ng/mL
  AUC(0-t): 14800 ng·h/mL
  half-life: 5.02 h
  Tmax: 2 h
[4]
  AUC(0-inf): 22400 ng·h/mL
  Cmax: 2490 ng/mL
  AUC(0-t): 20000 ng·h/mL
  half-life: 7.17 h
  Tmax: 2 h
[5]
  AUC(0-inf): 16200 ng·h/mL
  Cmax: 1650 ng/mL
  AUC(0-t): 13200 ng·h/mL
  half-life: 9.6 h
  Tmax: 2 h
[6]
  Cmax: 1160 ng/mL
  AUC(0-t): 17900 ng·h/mL
  Tmax: 4 h
[7]
  Cmax: 1210 ng/mL
  AUC(0-t): 12600 ng·h/mL
  Tmax: 4 h
[8]
  AUC(0-inf): 19400 ng·h/mL
  Cmax: 1530 ng/mL
  AUC(0-t): 17000 ng·h/mL
  half-life: 7.56 h
  Tmax: 2 h
[9]
  AUC(0-inf): 24200 ng·h/mL
  Cmax: 2710 ng/mL
  AUC(0-t): 21200 ng·h/mL
  half-life: 7.91 h
  Tmax: 0.5 h
[10]
  AUC(0-inf): 41900 ng·h/mL
  Cmax: 2200 ng/mL
  AUC(0-t): 26000 ng·h/mL
  half-life: 16.4 h
  Tmax: 2 h
[11]
  AUC(0-inf): 4160 ng·h/mL
  Cmax: 406 ng/mL
  AUC(0-t): 3630 ng·h/mL
  half-life: 7.56 h
  Tmax: 1 h
[12]
  AUC(0-inf): 7180 ng·h/mL
  Cmax: 295 ng/mL
  AUC(0-t): 4320 ng·h/mL
  half-life: 17.4 h
  Tmax: 2 h
[13]
  AUC(0-inf): 11500 ng·h/mL
  Cmax: 2190 ng/mL
  AUC(0-t): 10900 ng·h/mL
  half-life: 5.86 h
  Tmax: 1 h
[14]
  AUC(0-inf): 14300 ng·h/mL
  Cmax: 1510 ng/mL
  AUC(0-t): 11000 ng·h/mL
  half-life: 10.1 h
  Tmax: 1 h
Patients 1, 2 and 3, 20 mg oral daily
  peak plasma concentrations versus concentrations active in cultured cells: exceeded those needed to suppress cultured human cancer cell growth
Patients 1, 2 and 3, 20 mg oral daily, versus allometric scaling from mice, rats, dogs
  trough plasma concentrations (immediately prior to dosing on day 2, 15, and 22): higher than anticipated
Patients taking pantoprazole vs not
  effect of pantoprazole on systemic exposure / oral absorption: lower in patients taking pantoprazole; also recorded: reduces oral absorption
